Assay results reported in US20100248390A1, “COMPOSITIONS AND METHODS FOR IDENTIFYING LIGANDS OF ODORANT RECEPTORS” (DUKE UNIVERSITY, priority 2009, published 2010).
Several values for one entry are separate records, joined by “and”; a condition that tells them apart may be missing. Equal values may be shown once.

Tested on: mouse odorant receptors (ORs)
Test: CRE-luciferase assay of odorant receptor activation (Dual-Glo, Hana3A cells, RTP1S), dose-response EC50
Type: cell-based
Settings: for log EC50, MOR138-1: receptor MOR138-1; for log EC50, MOR203-1 / log EC50 (Table 4 value), MOR203-1 / log EC50 of odorant at MOR203-1 (0 = no response): receptor MOR203-1; for log EC50, MOR184-1: receptor MOR184-1; for log EC50, MOR189-1 / log EC50 (Table 4 value), MOR189-1: receptor MOR189-1; for log EC50 of odorant at MOR5-1 (0 = no response): receptor MOR5-1; for log EC50 of odorant at MOR30-1 (0 = no response): receptor MOR30-1; for log EC50 of odorant at MOR33-1 (0 = no response): receptor MOR33-1; for log EC50 of odorant at MOR40-1 (0 = no response): receptor MOR40-1; for log EC50 (Table 4 value), MOR222-1: receptor MOR222-1; for log EC50 (Table 4 value), MOR161-1: receptor MOR161-1; for log EC50 (Table 4 value), MOR162-1: receptor MOR162-1; for log EC50 (Table 4 value), MOR170-1: receptor MOR170-1; for log EC50 (Table 4 value), MOR185-1: receptor MOR185-1; for log EC50 (Table 4 value), MOR207-1: receptor MOR207-1; for log EC50 (Table 4 value), MOR273-1: receptor MOR273-1; for log EC50 of odorant at MOR260-1 (0 = no response): receptor MOR260-1
[1] = receptor MOR41-1, 0 = no response
[2] = receptor MOR139-1, 0 = no response
[3] = receptor MOR271-1, 0 = no response
[4] = receptor MOR272-1, 0 = no response
[5] = receptor MOR261-1, 0 = no response

CC(C)=CCCC(C)CCO (single isomer, unassigned; (-)) [(−)-b-C ? inedol]
log EC50, MOR138-1 (0 = no response): −3.347
log EC50, MOR203-1 (0 = no response): −3.147

C=C(C)[C@@H]1CC[C@@H](C)C(=O)C1 [(+)-Dihydrocarvone]
log EC50, MOR41-1 [1]: −4.301
log EC50, MOR138-1 (0 = no response): −3.498
log EC50, MOR139-1 [2]: −3.637
log EC50, MOR182-1 (receptor MOR182-1, 0 = no response): −3.406
log EC50, MOR184-1 (0 = no response): −3.55
log EC50, MOR189-1 (0 = no response): −3.976
log EC50, MOR203-1 (0 = no response): −4.241
log EC50, MOR271-1 [3]: −3.987
log EC50, MOR272-1 [4]: −4.273

CCCCCCCCCCO [1-Decanol]
log EC50, MOR203-1 (0 = no response): −3.299
log EC50, MOR261-1 [5]: −3.273

C=C(C)[C@H]1CC=C(C)C(=O)C1 [(+)-Carvone]
log EC50, MOR41-1 [1]: −4.644
log EC50, MOR129-1 (receptor MOR129-1, 0 = no response): −4.145
log EC50, MOR139-1 [2]: −4.032
log EC50, MOR184-1 (0 = no response): −3.812
log EC50, MOR189-1 (0 = no response): −4.302
log EC50, MOR203-1 (0 = no response): −3.814
log EC50, MOR250-1 (receptor MOR250-1, 0 = no response): −3.938
log EC50, MOR271-1 [3]: −4.098
log EC50, MOR272-1 [4]: −4.564

CCCCCCCO [1-Heptanol]
log EC50, MOR41-1 [1]: −3.68
log EC50, MOR203-1 (0 = no response): −3.387
log EC50, MOR261-1 [5]: −3.382
log EC50, MOR271-1 [3]: −3.47
log EC50, MOR272-1 [4]: −4.181

CCCCCCCC(=O)O [Octanoic Acid]
log EC50 of odorant at MOR5-1 (0 = no response): −3.711
log EC50 of odorant at MOR23-1 (0 = no response) (receptor MOR23-1): −5.053
log EC50 of odorant at MOR25-1 (0 = no response) (receptor MOR25-1): −3.689
log EC50 of odorant at MOR30-1 (0 = no response): −3.68
log EC50 of odorant at MOR33-1 (0 = no response): −4.212
log EC50 of odorant at MOR40-1 (0 = no response): −3.617

C=CCOC(=O)Cc1ccccc1 [Allyl phenylacetate]
log EC50 (Table 4 value), MOR1-1 (receptor MOR1-1): −3.581
log EC50 (Table 4 value), MOR2-1 (receptor MOR2-1): −3.253
log EC50 (Table 4 value), MOR139-1 (receptor MOR139-1): −3.625
log EC50 (Table 4 value), MOR203-1: −3.401
log EC50 (Table 4 value), MOR222-1: −3.369
log EC50 (Table 4 value), MOR223-1 (receptor MOR223-1): −4.178
log EC50 (Table 4 value), MOR236-1 (receptor MOR236-1): −4.052
log EC50 (Table 4 value), MOR258-17 (receptor MOR258-17): −3.842
log EC50 (Table 4 value), MOR261-1 (receptor MOR261-1): −3.425
log EC50 (Table 4 value), MOR268-1 (receptor MOR268-1): −3.434
log EC50 (Table 4 value), MOR271-1 (receptor MOR271-1): −4.23
log EC50 (Table 4 value), MOR272-1 (receptor MOR272-1): −4.824

CC(C)=CCC/C(C)=C/CO [Getaniol]
log EC50 (Table 4 value), MOR139-1 (receptor MOR139-1): −3.939
log EC50 (Table 4 value), MOR203-1: −3.622
log EC50 (Table 4 value), MOR238-1 (receptor MOR238-1): −3.843
log EC50 (Table 4 value), MOR268-1 (receptor MOR268-1): −3.897

CC(=O)Oc1ccccc1 [Phenyl acetate]
log EC50 of odorant at MOR41-1 (0 = no response) (receptor MOR41-1): −4.143
log EC50 of odorant at MOR106-1 (0 = no response) (receptor MOR106-1): −3.874
log EC50 of odorant at MOR139-1 (0 = no response) (receptor MOR139-1): −3.421 and −3.385
log EC50 of odorant at MOR223-1 (0 = no response) (receptor MOR223-1): −3.487
log EC50 of odorant at MOR250-1 (0 = no response) (receptor MOR250-1): −3.545
log EC50 of odorant at MOR258-1 (0 = no response) (receptor MOR258-1): −3.099
log EC50 of odorant at MOR271-1 (0 = no response) (receptor MOR271-1): −5.033
log EC50 of odorant at MOR272-1 (0 = no response) (receptor MOR272-1): −5.098

O=c1ccc2ccccc2o1 [Coumarin]
log EC50 (Table 4 value), MOR41-1 (receptor MOR41-1): −4.785
log EC50 (Table 4 value), MOR106-1 (receptor MOR106-1): −3.919
log EC50 (Table 4 value), MOR129-1 (receptor MOR129-1): −4.04
log EC50 (Table 4 value), MOR139-1 (receptor MOR139-1): −3.749
log EC50 (Table 4 value), MOR161-1: −3.139
log EC50 (Table 4 value), MOR162-1: −4.483
log EC50 (Table 4 value), MOR170-1: −3.989
log EC50 (Table 4 value), MOR185-1: −4.042
log EC50 (Table 4 value), MOR189-1: −3.215
log EC50 (Table 4 value), MOR207-1: −3.905
log EC50 (Table 4 value), MOR250-1 (receptor MOR250-1): −3.855
log EC50 (Table 4 value), MOR258-1 (receptor MOR258-1): −4.296
log EC50 (Table 4 value), MOR259-1 (receptor MOR259-1): −3.834

CCCCCC1=C(C)CCC1=O [Dihydroiasmone]
log EC50 (Table 4 value), MOR41-1 (receptor MOR41-1): −3.766
log EC50 (Table 4 value), MOR139-1 (receptor MOR139-1): −4.308
log EC50 (Table 4 value), MOR189-1: −3.945
log EC50 (Table 4 value), MOR205-1 (receptor MOR205-1): −4.699
log EC50 (Table 4 value), MOR271-1 (receptor MOR271-1): −4.126
log EC50 (Table 4 value), MOR272-1 (receptor MOR272-1): −4.447
log EC50 (Table 4 value), MOR273-1: −4.441

CCCCCCCCCS [Nonanethiol]
log EC50 of odorant at MOR203-1 (0 = no response): −3.528
log EC50 of odorant at MOR260-1 (0 = no response): −4.488
log EC50 of odorant at MOR261-1 (0 = no response) (receptor MOR261-1): −3.376
log EC50 of odorant at MOR268-1 (0 = no response) (receptor MOR268-1): −3.589

CC(=O)OCc1ccccc1 [Benzyl acetate]
log EC50 (Table 4 value), MOR41-1 (receptor MOR41-1): −3.972
log EC50 (Table 4 value), MOR139-1 (receptor MOR139-1): −3.729
log EC50 (Table 4 value), MOR203-1: −3.531
log EC50 (Table 4 value), MOR223-1 (receptor MOR223-1): −3.841
log EC50 (Table 4 value), MOR261-1 (receptor MOR261-1): −3.352
log EC50 (Table 4 value), MOR271-1 (receptor MOR271-1): −5.379
log EC50 (Table 4 value), MOR272-1 (receptor MOR272-1): −4.948

CCCCCCCCC(=O)O [Nonanoic acid]
log EC50 of odorant at MOR5-1 (0 = no response): −4.029
log EC50 of odorant at MOR18-1 (0 = no response) (receptor MOR18-1): −4.077
log EC50 of odorant at MOR30-1 (0 = no response): −4.396
log EC50 of odorant at MOR33-1 (0 = no response): −4.606
log EC50 of odorant at MOR37-1 (0 = no response) (receptor MOR37-1): −3.9
log EC50 of odorant at MOR40-1 (0 = no response): −4.128
log EC50 of odorant at MOR203-1 (0 = no response): −3.478
log EC50 of odorant at MOR260-1 (0 = no response): −4.108

CC(=O)c1ccccc1 [Acetophenone]
log EC50 (Table 4 value), MOR41-1 (receptor MOR41-1): −5.039
log EC50 (Table 4 value), MOR105-1 (receptor MOR105-1): −3.429
log EC50 (Table 4 value), MOR106-1 (receptor MOR106-1): −3.854
log EC50 (Table 4 value), MOR129-1 (receptor MOR129-1): −5.484
log EC50 (Table 4 value), MOR139-1 (receptor MOR139-1): −3.935
log EC50 (Table 4 value), MOR161-1: −3.825
log EC50 (Table 4 value), MOR162-1: −4.778
log EC50 (Table 4 value), MOR170-1: −3.9
log EC50 (Table 4 value), MOR185-1: −4.016
log EC50 (Table 4 value), MOR189-1: −3.372
log EC50 (Table 4 value), MOR207-1: −3.608
log EC50 (Table 4 value), MOR250-1 (receptor MOR250-1): −3.975
log EC50 (Table 4 value), MOR258-1 (receptor MOR258-1): −3.358
log EC50 (Table 4 value), MOR271-1 (receptor MOR271-1): −4.05
log EC50 (Table 4 value), MOR272-1 (receptor MOR272-1): −3.922

O=C1CCOc2ccccc21 [4-Chromanone]
log EC50 (Table 4 value), MOR41-1 (receptor MOR41-1): −4.747
log EC50 (Table 4 value), MOR129-1 (receptor MOR129-1): −3.785
log EC50 (Table 4 value), MOR139-1 (receptor MOR139-1): −4.028
log EC50 (Table 4 value), MOR162-1: −4.225
log EC50 (Table 4 value), MOR170-1: −4.209
log EC50 (Table 4 value), MOR185-1: −3.833
log EC50 (Table 4 value), MOR189-1: −3.684
log EC50 (Table 4 value), MOR207-1: −3.724
log EC50 (Table 4 value), MOR222-1: −3.618
log EC50 (Table 4 value), MOR271-1 (receptor MOR271-1): −4.047
log EC50 (Table 4 value), MOR272-1 (receptor MOR272-1): −4.043
log EC50 (Table 4 value), MOR273-1: −4.201
log EC50 (Table 4 value), MOR277-1 (receptor MOR277-1): −3.415

C=C(C)C1CC=C(C)C(=O)C1 (single isomer, unassigned; (-)) [(−)-Carvone]
log EC50, MOR41-1 [1]: −4.257
log EC50, MOR139-1 [2]: −3.861
log EC50, MOR184-1 (0 = no response): −3.92
log EC50, MOR189-1 (0 = no response): −4.147
log EC50, MOR203-1 (0 = no response): −3.938
log EC50, MOR271-1 [3]: −4.14

CCCCCCCCS [Octanethiol]
log EC50 of odorant at MOR203-1 (0 = no response): −3.356
